Assay results taken from ChEMBL document CHEMBL1138594, “Identification of an N-oxide pyridine GW4064 analog as a potent FXR agonist” (Bioorg Med Chem Lett, 2009).

Key:
[1] = Permeability by PAMPA method; type: ADME; conditions: read-out: permeability
[2] = target: T1, Bile acid receptor (Mus musculus) (UniProt Q60641); test: Agonist activity at mouse chimeric FXR assessed as receptor transactivation by luciferase transcriptional reporter gene assay relative to GW-4064; type: functional; design: concentration or dose not given beside the values
T1 sequence (whole entry): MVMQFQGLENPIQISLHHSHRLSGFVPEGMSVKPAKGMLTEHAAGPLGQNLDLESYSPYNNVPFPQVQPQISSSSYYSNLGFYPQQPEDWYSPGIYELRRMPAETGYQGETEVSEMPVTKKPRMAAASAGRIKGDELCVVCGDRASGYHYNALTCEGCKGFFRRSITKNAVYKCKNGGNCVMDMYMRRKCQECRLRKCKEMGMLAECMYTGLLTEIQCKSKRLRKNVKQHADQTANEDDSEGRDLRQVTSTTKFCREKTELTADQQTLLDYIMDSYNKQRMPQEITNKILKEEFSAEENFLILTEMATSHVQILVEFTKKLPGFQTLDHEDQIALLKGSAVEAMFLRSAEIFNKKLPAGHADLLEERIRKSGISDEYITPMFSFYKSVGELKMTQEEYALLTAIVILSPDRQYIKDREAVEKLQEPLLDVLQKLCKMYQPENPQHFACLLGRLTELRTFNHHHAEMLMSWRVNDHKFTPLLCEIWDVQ

[3] = target: T2, Bile acid receptor (Homo sapiens, UniProt Q96RI1)
T2 sequence (Q96RI1 whole entry): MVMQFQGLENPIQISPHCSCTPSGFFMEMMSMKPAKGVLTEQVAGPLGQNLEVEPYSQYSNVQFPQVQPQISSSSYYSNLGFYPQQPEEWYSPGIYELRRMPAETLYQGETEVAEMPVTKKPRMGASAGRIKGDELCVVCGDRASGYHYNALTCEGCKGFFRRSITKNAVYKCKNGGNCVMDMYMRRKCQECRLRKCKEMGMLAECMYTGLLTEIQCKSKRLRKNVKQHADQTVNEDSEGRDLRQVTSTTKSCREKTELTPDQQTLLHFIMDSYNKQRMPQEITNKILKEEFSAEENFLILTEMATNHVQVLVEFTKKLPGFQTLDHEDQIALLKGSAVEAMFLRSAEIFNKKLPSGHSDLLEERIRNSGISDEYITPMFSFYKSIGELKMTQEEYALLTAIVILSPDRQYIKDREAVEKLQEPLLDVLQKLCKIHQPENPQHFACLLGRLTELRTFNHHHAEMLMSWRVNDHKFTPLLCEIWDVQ

[4] = target: T3, Bile acid receptor (Mus musculus, UniProt Q60641); test: Agonist activity at mouse chimeric FXR assessed as receptor transactivation by luciferase transcriptional reporter gene assay; type: functional
T3 sequence (Q60641 whole entry): T1 sequence (whole entry)

[5] = target: T4, Bile acid receptor (Homo sapiens) (UniProt Q96RI1); test: Agonist activity at chimeric FXR assessed as receptor transactivation by luciferase transcriptional reporter gene assay relative to GW-4064; type: functional; design: concentration or dose not given beside the values
T4 sequence (whole entry): T2 sequence (Q96RI1 whole entry)

[6] = target: T2, Bile acid receptor; test: Displacement of radioligand from human FXR by scintillation proximity assay

Row | Structure (SMILES) | Papp [1] [×10⁻⁶ cm/s] | Activity [2] [%] | EC50 [3] [µM] | EC50 [4] [µM] | Activity [5] [%] | IC50 [6] [µM]
1 | COc1ccccc1-c1noc(C(C)C)c1COc1ccc(/C=C/c2cccc(C(=O)O)c2)c(Cl)c1 |  | 19.8 | 10 | 10 | 54.3 | 0.25
2 | CC(C)c1onc(-c2c(Cl)cncc2Cl)c1COc1ccc(/C=C/c2cccc(C(=O)O)c2)c(Cl)c1 | 0.09 | 48 | 9 | 11 | 59.4 | 0.69
3 | Cc1cc(OCc2c(-c3c(Cl)c[n+]([O-])cc3Cl)noc2C(C)C)ccc1-c1ccc2c(C(=O)O)cn(C)c2c1 | 587 | 88.5 | 0.102 | 0.2 | 53.7 | 0.045
4 | COc1ccc(Cl)c(-c2noc(C(C)C)c2COc2ccc(-c3ccc4c(C(=O)O)cn(C)c4c3)c(C)c2)n1 | 0.7 | 12 | 2 | 2 | 23 | 0.31
5 | CC(C)c1onc(-c2c(Cl)cccc2Cl)c1COc1ccc(/C=C/c2cccc(C(=O)O)c2)c(Cl)c1 |  |  |  | 2 | 100 | 
6 | CC(C)c1onc(-c2ccc(S(C)(=O)=O)cc2Cl)c1COc1ccc(/C=C/c2cccc(C(=O)O)c2)c(Cl)c1 |  | 0 | > 10 | > 10 | 0 | 0.17

Other lines, results leading:

Row | Papp [1] [×10⁻⁶ cm/s] | Activity [2] [%] | EC50 [3] [µM] | EC50 [4] [µM] | Activity [5] [%] | IC50 [6] [µM] | Structure (SMILES)
7 | 0.19 | 71 | 0.9 | 3 | 38 |  | Cc1cc(OCc2c(-c3c(Cl)cncc3Cl)noc2C(C)C)ccc1-c1ccc2c(C(=O)O)cn(C)c2c1
8 |  | 8 |  | 18 | 0 | 4.13 | Cc1cc(OCc2c(-c3[nH]c(=O)ccc3Cl)noc2C(C)C)ccc1-c1ccc2c(C(=O)O)cn(C)c2c1
9 |  | 39 | 4 | 4 | 27 | 0.235 | Cc1cc(OCc2c(-c3c(Cl)ccc(=O)n3C)noc2C(C)C)ccc1-c1ccc2c(C(=O)O)cn(C)c2c1
10 |  | 63.3 | 5 | 7 | 58.5 | 1.1 | Cc1cc(OCc2c(-c3cc[nH]c(=O)c3Cl)noc2C(C)C)ccc1-c1ccc2c(C(=O)O)cn(C)c2c1
11 |  | 15 | 12 | 11 | 9 | 2.75 | Cc1cc(OCc2c(-c3c(Cl)cn(C)c(=O)c3Cl)noc2C(C)C)ccc1-c1ccc2c(C(=O)O)cn(C)c2c1
12 |  | 17 | 7 | 6 | 12 | 1.72 | Cc1cc(OCc2c(-c3ccn(C)c(=O)c3Cl)noc2C(C)C)ccc1-c1ccc2c(C(=O)O)cn(C)c2c1
